ChEMBL document CHEMBL1201862, “PubChem BioAssay data set” (2004)
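Assay format: 96-well plates, 48-hour exposure. At the GI50, growth is halved.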 Activity calls are given as the source filed them. Cut-off read from the data, not from the text of the source: active = GI50 up to about 1.1 µM and inactive = higher.

How the values were obtained:
Assay in all cases: inhibition of tumour cell growth, NCI panel, 48 h
A498 = system: A498
ACHN = system: ACHN
BT-549 = system: BT-549
HOP-18 = system: HOP-18
HOP-62 = system: HOP-62
K562 = system: K562
KM12 = system: KM12
M14 = system: M14
MDA-MB-231 = system: MDA-MB-231
MDA-N = system: MDA-N
NCI-H522 = system: NCI-H522
NCI/ADR-RES = system: NCI/ADR-RES
OVCAR-3 = system: OVCAR-3
OVCAR-8 = system: OVCAR-8
RXF 393 = system: RXF 393
SF-268 = system: SF-268
SF-295 = system: SF-295
SK-MEL-2 = system: SK-MEL-2
SK-MEL-5 = system: SK-MEL-5
T47D = system: T47D

Measured: GI50

CN1C(c2ccccc2)CC(=NOCc2ccccc2)CC1c1ccccc1 (stereo not given)
inactive: A498 44.7 µM | ACHN 46.1 µM | BT-549 16.9 µM | HOP-18 48 µM | HOP-62 49.5 µM | K562 13.8 µM | KM12 21.9 µM | M14 42.5 µM | MDA-MB-231 43.7 µM | MDA-N 23.3 µM | NCI-H522 21.8 µM | NCI/ADR-RES 19.3 µM | OVCAR-3 29 µM | OVCAR-8 21.5 µM | RXF 393 54.5 µM | SF-268 24.3 µM | SF-295 44.2 µM | SK-MEL-2 57.4 µM | SK-MEL-5 33.7 µM | T47D 17.7 µM
